Data as given in ChEMBL document CHEMBL5038598, “Design and Synthesis of Pyrrolo[2,3-d]pyrimidine-Derived Leucine-Rich Repeat Kinase 2 (LRRK2) Inhibitors Using a Checkpoint Kinase 1 (CHK1)-Derived Crystallographic Surrogate” (J Med Chem, 2021).

Experiments:
[1] = molecular target: T1, Leucine-rich repeat serine/threonine-protein kinase 2 (Homo sapiens, UniProt Q5S007, G2019S); assay: Inhibition of recombinant human GST tagged truncated LRRK2 G2019S mutant using fluorescein-labeled LRRKtide as substrate in presence of ATP preincubated for 50 mins followed by anti-phospho-LRRKtide antibody addition and measured after 30 mins by TR-FRET based Lanthascreen kinase activity assay
T1 sequence (Q5S007 whole entry G2019S, the tested form may be a part): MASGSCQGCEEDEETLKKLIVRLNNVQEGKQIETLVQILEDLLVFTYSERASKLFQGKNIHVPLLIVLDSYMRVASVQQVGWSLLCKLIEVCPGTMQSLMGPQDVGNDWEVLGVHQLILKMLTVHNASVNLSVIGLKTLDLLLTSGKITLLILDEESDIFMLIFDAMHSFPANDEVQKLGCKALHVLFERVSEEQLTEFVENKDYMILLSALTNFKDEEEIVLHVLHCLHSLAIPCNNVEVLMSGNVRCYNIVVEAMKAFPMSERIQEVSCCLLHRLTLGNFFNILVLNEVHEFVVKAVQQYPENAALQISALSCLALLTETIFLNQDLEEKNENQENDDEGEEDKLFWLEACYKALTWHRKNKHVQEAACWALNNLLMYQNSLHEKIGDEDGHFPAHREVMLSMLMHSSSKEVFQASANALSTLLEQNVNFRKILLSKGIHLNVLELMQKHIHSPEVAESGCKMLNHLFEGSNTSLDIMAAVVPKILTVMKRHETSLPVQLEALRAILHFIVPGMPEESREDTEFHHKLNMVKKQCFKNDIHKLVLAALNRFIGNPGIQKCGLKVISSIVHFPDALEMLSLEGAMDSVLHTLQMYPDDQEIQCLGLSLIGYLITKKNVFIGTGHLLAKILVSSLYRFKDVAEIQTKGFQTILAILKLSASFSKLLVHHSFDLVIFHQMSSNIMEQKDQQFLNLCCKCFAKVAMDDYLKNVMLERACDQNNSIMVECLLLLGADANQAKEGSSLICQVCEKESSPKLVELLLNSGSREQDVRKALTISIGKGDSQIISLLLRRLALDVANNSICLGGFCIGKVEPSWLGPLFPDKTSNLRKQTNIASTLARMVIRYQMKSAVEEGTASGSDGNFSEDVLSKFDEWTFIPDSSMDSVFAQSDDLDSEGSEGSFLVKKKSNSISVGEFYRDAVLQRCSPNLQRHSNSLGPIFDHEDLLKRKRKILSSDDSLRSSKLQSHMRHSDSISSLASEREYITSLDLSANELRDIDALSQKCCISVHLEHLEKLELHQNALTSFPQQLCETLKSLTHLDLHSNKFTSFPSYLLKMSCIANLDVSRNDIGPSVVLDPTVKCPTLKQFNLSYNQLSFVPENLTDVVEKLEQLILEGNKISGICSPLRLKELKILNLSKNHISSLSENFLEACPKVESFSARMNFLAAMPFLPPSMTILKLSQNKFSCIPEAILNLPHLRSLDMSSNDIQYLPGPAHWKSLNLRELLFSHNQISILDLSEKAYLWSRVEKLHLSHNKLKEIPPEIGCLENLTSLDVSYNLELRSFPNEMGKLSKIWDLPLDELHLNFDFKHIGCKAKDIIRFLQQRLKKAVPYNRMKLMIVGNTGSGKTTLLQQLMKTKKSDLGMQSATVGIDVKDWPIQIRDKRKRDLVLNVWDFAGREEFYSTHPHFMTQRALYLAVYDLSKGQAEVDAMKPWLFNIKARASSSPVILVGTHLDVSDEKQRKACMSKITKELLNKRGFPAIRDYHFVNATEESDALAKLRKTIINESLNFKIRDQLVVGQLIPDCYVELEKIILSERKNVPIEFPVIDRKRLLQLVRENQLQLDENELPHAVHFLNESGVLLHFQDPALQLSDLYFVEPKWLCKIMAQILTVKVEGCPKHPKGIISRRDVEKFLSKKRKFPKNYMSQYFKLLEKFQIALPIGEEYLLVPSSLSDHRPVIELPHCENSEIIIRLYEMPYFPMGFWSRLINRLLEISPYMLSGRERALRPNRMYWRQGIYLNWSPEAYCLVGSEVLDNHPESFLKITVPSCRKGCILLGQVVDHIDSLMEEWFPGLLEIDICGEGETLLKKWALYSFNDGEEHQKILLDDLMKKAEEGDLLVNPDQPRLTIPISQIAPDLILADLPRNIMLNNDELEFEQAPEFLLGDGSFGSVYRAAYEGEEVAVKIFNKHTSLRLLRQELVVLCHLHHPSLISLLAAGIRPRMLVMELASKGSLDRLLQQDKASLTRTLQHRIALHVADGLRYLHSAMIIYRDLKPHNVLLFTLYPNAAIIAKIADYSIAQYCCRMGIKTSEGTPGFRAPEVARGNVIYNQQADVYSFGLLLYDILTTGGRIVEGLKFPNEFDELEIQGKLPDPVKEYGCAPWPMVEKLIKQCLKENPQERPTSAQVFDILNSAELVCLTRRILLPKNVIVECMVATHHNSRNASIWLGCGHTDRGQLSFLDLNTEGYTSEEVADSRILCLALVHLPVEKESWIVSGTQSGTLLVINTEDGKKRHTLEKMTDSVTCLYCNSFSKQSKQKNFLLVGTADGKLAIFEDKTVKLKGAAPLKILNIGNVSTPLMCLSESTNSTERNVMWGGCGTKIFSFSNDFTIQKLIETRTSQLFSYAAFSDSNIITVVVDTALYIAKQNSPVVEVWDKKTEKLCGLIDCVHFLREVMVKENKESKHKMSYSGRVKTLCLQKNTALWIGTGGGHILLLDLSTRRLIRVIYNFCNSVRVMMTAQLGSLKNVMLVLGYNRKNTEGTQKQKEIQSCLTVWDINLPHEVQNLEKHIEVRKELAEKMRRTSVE

[2] = molecular target: T1, Leucine-rich repeat serine/threonine-protein kinase 2; assay: Binding affinity to human GST tagged truncated LRRK2 G2019S mutant incubated for 2 hrs by TR-FRET based Lanthascreen kinase activity assay
[3] = molecular target: T2, Leucine-rich repeat serine/threonine-protein kinase 2 (Homo sapiens, UniProt Q5S007); assay: Inhibition of recombinant human LRRK2 WT using fluorescein-labeled LRRKtide as substrate in presence of ATP preincubated for 50 mins followed by anti-phospho-LRRKtide antibody addition and measured after 30 mins by TR-FRET based Lanthascreen kinase activity assay
T2 sequence (Q5S007 whole entry): as the sequence (Q5S007 whole entry G2019S, the tested form may be a part) above, with S2019G counted along it

[4] = molecular target: T2, Leucine-rich repeat serine/threonine-protein kinase 2; assay: Binding affinity to human LRRK2 WT incubated for 2 hrs by TR-FRET based Lanthascreen kinase activity assay
[5] = molecular target: T1, Leucine-rich repeat serine/threonine-protein kinase 2; assay: Inhibition of LRRK2-pSer935 in LRRK2 G2019S mutant expressing human HEK293 cells and measured after 48 hrs by ICW assay; type: cell-based
[6] = molecular target: T2, Leucine-rich repeat serine/threonine-protein kinase 2; assay: Inhibition of LRRK2-pSer935 in LRRK2 WT expressing human HEK293 cells and measured after 48 hrs by ICW assay; type: cell-based
[7] = molecular target: T3, NUAK family SNF1-like kinase 1 (Homo sapiens) (UniProt O60285); assay: Inhibition of ARK5 (unknown origin) assessed as remaining activity using botin-anti-his and Lanthascreen Eu-streptavidin at 1 uM incubated for 2 hrs by TR-FRET based Lanthascreen kinase activity assay relative to control
T3 sequence (whole entry): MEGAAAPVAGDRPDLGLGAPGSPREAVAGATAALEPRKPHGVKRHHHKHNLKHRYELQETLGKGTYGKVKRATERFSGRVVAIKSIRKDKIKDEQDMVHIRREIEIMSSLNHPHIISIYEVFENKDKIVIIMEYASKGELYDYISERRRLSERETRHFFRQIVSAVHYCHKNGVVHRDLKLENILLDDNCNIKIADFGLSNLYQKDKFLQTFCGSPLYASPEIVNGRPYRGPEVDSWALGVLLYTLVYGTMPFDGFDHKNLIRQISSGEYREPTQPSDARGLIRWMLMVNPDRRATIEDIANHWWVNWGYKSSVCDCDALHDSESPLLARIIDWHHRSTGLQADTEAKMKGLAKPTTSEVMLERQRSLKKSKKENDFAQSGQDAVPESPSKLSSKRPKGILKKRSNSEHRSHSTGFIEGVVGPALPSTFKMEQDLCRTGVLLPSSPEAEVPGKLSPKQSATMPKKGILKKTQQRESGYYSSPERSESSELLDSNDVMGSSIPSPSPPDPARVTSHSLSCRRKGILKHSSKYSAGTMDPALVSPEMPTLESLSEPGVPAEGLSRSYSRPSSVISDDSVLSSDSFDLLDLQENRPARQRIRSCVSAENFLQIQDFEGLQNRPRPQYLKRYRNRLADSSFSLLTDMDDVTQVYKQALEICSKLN

[8] = molecular target: Proto-oncogene tyrosine-protein kinase receptor Ret (Homo sapiens) (UniProt P07949); assay: Inhibition of RET (unknown origin) assessed as remaining activity using botin-anti-his and Lanthascreen Eu-streptavidin measured at 1 uM incubated for 2 hrs by TR-FRET based Lanthascreen kinase activity assay relative to control
Chain of Proto-oncogene tyrosine-protein kinase receptor Ret (Homo sapiens) (P07949 whole entry): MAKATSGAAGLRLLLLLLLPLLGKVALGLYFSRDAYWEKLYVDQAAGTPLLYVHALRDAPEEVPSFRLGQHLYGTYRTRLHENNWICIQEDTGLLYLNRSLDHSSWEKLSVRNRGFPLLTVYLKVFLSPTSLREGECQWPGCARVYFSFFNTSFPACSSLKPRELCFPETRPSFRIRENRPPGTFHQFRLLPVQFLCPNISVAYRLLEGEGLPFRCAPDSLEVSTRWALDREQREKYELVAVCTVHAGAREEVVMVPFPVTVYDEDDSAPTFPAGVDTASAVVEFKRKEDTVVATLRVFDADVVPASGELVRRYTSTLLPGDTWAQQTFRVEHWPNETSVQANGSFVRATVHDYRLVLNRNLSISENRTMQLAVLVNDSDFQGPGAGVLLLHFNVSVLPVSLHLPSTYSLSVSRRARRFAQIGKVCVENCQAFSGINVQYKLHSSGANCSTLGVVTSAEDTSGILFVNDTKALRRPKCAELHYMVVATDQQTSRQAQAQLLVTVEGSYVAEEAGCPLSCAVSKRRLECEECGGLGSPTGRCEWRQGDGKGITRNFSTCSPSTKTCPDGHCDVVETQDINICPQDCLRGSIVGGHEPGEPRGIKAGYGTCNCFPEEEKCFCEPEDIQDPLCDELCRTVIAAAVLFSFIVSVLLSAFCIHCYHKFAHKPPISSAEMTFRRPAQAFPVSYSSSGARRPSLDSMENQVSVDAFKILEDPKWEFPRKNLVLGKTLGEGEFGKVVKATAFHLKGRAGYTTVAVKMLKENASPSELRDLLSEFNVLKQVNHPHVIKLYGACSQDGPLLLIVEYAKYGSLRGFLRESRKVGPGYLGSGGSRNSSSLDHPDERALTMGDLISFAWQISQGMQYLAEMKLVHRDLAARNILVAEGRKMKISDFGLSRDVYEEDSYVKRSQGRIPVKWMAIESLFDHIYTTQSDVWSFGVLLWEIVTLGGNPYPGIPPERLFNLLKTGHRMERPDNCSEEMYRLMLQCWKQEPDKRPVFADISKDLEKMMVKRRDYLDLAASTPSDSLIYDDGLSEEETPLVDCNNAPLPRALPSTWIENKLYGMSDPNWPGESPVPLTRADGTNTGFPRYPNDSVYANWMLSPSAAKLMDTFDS

[9] = Aqueous solubility of the compound; type: physicochemical; settings: buffer

Row | SMILES | IC50 [1] [nM] | Ki [2] [nM] | IC50 [3] [nM] | Ki [4] [nM] | IC50 [5] [nM] | IC50 [6] [nM] | Activity [7] [%] | Activity [8] [%] | solubility [9]
1 | C[C@@H]1CCCN1c1c(C(N)=O)c2c(N)ncnc2n1C | 2240 | 154 | 3190 | 77 |  |  |  |  | 
2 | C[C@@H]1CCCN1c1c(C#N)c2c(N)nc(Nc3cn(C)nc3Cl)nc2n1C | 21 |  | 34 |  | 54 | 190 |  |  | 
3 | Cc1nn(CC2(O)COC2)cc1Nc1nc(N)c2c(C#N)c(N3CCC[C@H]3C)n(C)c2n1 | 51 |  | 57 |  | 250 | 410 |  |  | 
4 | Cc1c(Nc2nc(N)c3c(C#N)c(N4CCC[C@H]4C)n(C)c3n2)cnn1C | 43 | 3 | 75 | 2 | 260 | 310 |  |  | 
5 | C[C@@H]1CCCN1c1cc2c(N)ncnc2n1C | 6390 | 439 | 6830 | 164 |  |  |  |  | 
6 | Cc1c(Nc2nc(N)c3c(C#N)c(N4CCC[C@H]4C)n(C)c3n2)cnn1C1COC1 | 37 |  | 47 |  | 190 | 300 |  |  | 
7 | Cc1nn(CC(C)(C)O)cc1Nc1nc(N)c2c(C#N)c(N3CCC[C@H]3C)n(C)c2n1 | 42 |  | 49 |  | 180 | 280 |  |  | 
8 | Cc1cn(C)nc1Nc1cc2c(c(N)n1)c(C#N)c(N1CCC[C@H]1C)n2C | 1290 | 75 | 2110 | 63 |  |  | -7 | 8 | 
9 | C[C@@H]1CCCN1c1c(C#N)c2c(N)nc(Nc3cnn(C)c3)nc2n1C | 5 | 0.3 | 6 | 0.1 |  |  | 91 | 103 | 
10 | Cc1nn(C2CCOC2)cc1Nc1nc(N)c2c(C#N)c(N3CCC[C@H]3C)n(C)c2n1 (single isomer, unassigned) | 28 |  | 44 |  | 180 | 260 |  |  | 
11 | CN(C)c1c(C#N)c2c(N)ncnc2n1C | 3760 | 259 | 4620 | 111 |  |  |  |  | 
12 | Cn1c(NCc2ccccc2F)c(C#N)c2c(N)ncnc21 | 1740 | 120 | 6060 | 145 |  |  |  |  | 
13 | Nc1ncnc2[nH]ncc12 | 26600 | 11300 |  |  |  |  |  |  | 
14 | Nc1ncnc2nc[nH]c12 [ADENINE] | 15800 | 6720 |  |  |  |  |  |  | 
15 | Cc1c(Nc2nc(N)c3c(C#N)c(N4CCC[C@H]4C)n(C)c3n2)cnn1CC(C)(C)O | 35 |  | 43 |  | 120 | 280 |  |  | 
16 | C[C@@H]1CCCN1c1c(C#N)c2c(N)nc(Nc3cnn(C)c3)cc2n1C |  | 794 |  | 538 |  |  |  |  | 
17 | C[C@@H]1CCCN1c1c(C#N)c2c(N)ncnc2n1C | 11 | 0.7 | 15 | 0.4 |  |  | 93 | 64 | 
18 | C[C@@H]1CCCN1c1[nH]c2ncnc(N)c2c1C#N | 201 | 14 | 166 | 4 |  |  |  |  | 

Row | SMILES | IC50 [1] [nM] | Ki [2] [nM] | IC50 [3] [nM] | Ki [4] [nM] | IC50 [5] [nM] | IC50 [6] [nM] | Activity [7] [%] | Activity [8] [%] | solubility [9]
19 | C[C@@H]1CCCN1c1c(C#N)c2c(N)nc(Nc3cn(C)nc3C(F)(F)F)nc2n1C | 358 |  | 508 |  | 460 | 910 |  |  | 
20 | Cc1nn(C2CCOC2)cc1Nc1nc(N)c2c(C#N)c(N3CCC[C@H]3C)n(C)c2n1 (mixture of isomers) | 12 |  | 19 |  | 65 | 140 |  |  | 
21 | Cn1c(-c2ccccc2)c(C#N)c2c(N)ncnc21 | 483 | 33 | 1260 | 30 |  |  |  |  | 
22 | CN(C)c1ncnc2nc[nH]c12 [DIMETHYLADENINE] | 3350 | 1420 |  |  |  |  |  |  | 
23 | Cn1c(-c2cccc(F)c2F)c(C#N)c2c(N)ncnc21 | 159 | 11 | 572 | 14 |  |  |  |  | 
24 | Cn1c(N2CCCC2)c(C#N)c2c(N)ncnc21 | 1910 | 125 | 1480 | 41 |  |  |  |  | 
25 | C[C@@H]1CCCN1c1c(C#N)c2c(N)nc(Nc3cn[nH]c3)nc2n1C | 6 | 0.4 | 6 | 0.2 |  |  | 97 | 101 | 
26 | C[C@@H]1CCCN1c1c(C#N)c2c(N)nccc2n1C | 28 | 2 | 34 | 0.8 |  |  | 65 | 37 | 
27 | Cn1c(NCc2ccccc2)c(C#N)c2c(N)ncnc21 | 3530 | 243 |  | 423 |  |  |  |  | 
28 | Cc1nn(C2COC2)cc1Nc1nc(N)c2c(C#N)c(N3CCC[C@H]3C)n(C)c2n1 | 25 |  | 38 |  | 140 | 240 |  |  | 
29 | C[C@H]1CCCN1c1c(C#N)c2c(N)ncnc2n1C | 3080 | 212 | 5660 | 136 |  |  |  |  | 
30 | Cn1c(-n2cccc2)c(C#N)c2c(N)ncnc21 |  | 1980 |  | 239 |  |  |  |  | Insoluble
31 | Cc1c(Nc2nc(N)c3c(C#N)c(N4CCC[C@H]4C)n(C)c3n2)cnn1CC1(O)COC1 | 10 |  | 16 |  | 120 | 220 |  |  | 
32 | C[C@@H]1CCCN1c1c(C#N)c2c(N)nc(Nc3ccn(C)n3)cc2n1C | 206 | 13 | 234 | 6 |  |  | 3 | 27 | 
33 | Cc1nn(C)cc1Nc1nc(N)c2c(C#N)c(N3CCC[C@H]3C)n(C)c2n1 | 30 | 2 | 38 | 1 | 120 | 190 |  |  | 
34 | C[C@@H]1CCCN1c1c(C#N)c2c(N)nc(N)nc2n1C | 217 | 13 | 248 | 6 |  |  |  |  | 
35 | Cc1n[nH]cc1Nc1nc(N)c2c(C#N)c(N3CCC[C@H]3C)n(C)c2n1 | 27 | 2 | 42 | 1 |  |  | -5 | 8 | 
36 | Cn1c(N)c(C#N)c2c(N)ncnc21 | 8560 | 589 | 14400 | 346 |  |  |  |  | 
